Measured values reported in ChEMBL document CHEMBL1139689, “Discovery and preliminary structure-activity relationship studies of novel benzotriazine based compounds as Src inhibitors” (Bioorg Med Chem Lett, 2006).

Legend:
[1] = target: Proto-oncogene tyrosine-protein kinase Src (Homo sapiens, UniProt P12931)
[2] = target: Tyrosine-protein kinase ABL1 (Homo sapiens, UniProt P00519); experiment: Inhibition of Abl
[3] = target: RAF proto-oncogene serine/threonine-protein kinase (Homo sapiens, UniProt P04049); experiment: Inhibition of Raf1 kinase
Sequence of RAF proto-oncogene serine/threonine-protein kinase (P04049 whole entry): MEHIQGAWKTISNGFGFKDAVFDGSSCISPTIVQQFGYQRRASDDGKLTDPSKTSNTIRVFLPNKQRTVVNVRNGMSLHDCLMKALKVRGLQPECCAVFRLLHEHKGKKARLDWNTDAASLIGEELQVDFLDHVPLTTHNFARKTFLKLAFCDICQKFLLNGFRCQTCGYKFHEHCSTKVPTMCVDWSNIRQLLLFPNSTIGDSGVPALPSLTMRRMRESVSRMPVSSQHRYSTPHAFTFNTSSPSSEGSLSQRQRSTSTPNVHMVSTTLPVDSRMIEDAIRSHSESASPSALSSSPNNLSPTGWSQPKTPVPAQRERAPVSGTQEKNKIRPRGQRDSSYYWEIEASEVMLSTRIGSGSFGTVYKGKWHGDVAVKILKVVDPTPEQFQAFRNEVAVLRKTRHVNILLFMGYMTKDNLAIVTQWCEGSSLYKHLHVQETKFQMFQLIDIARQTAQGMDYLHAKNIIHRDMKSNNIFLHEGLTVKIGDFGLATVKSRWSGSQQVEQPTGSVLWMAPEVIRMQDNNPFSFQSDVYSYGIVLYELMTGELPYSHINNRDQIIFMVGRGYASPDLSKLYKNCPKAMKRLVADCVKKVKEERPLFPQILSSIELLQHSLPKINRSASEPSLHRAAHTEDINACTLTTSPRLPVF

[4] = target: Tyrosine-protein kinase Fyn (Homo sapiens, UniProt P06241); experiment: Inhibition of Fyn
Sequence of Tyrosine-protein kinase Fyn (P06241 whole entry): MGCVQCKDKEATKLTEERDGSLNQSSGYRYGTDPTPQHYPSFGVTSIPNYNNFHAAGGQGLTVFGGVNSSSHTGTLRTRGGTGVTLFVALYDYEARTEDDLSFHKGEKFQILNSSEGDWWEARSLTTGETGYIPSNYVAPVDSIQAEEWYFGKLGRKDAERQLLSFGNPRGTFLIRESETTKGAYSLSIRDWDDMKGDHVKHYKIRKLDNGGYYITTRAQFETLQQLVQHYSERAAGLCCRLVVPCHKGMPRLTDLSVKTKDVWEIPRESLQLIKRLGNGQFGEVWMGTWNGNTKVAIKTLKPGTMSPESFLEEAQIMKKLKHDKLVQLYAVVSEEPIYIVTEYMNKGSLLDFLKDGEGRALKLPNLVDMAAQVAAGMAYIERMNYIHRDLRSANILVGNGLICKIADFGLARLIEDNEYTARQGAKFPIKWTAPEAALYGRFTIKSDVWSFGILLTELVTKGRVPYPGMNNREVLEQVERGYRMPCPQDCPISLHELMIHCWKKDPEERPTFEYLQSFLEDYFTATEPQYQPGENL

[5] = target: Angiopoietin-1 receptor (Homo sapiens, UniProt Q02763); experiment: Inhibition of Tie2
[6] = target: Serine/threonine-protein kinase RAF and Dual specificity mitogen-activated protein kinase kinase 1 (Raf/MEK) (Homo sapiens, UniProt P04049+Q02750); experiment: Inhibition of Raf1-MEK1; format: protein assay
[7] = target: Tyrosine-protein kinase Blk (Homo sapiens, UniProt P51451); experiment: Inhibition of Blk
Sequence of Tyrosine-protein kinase Blk (P51451 whole entry): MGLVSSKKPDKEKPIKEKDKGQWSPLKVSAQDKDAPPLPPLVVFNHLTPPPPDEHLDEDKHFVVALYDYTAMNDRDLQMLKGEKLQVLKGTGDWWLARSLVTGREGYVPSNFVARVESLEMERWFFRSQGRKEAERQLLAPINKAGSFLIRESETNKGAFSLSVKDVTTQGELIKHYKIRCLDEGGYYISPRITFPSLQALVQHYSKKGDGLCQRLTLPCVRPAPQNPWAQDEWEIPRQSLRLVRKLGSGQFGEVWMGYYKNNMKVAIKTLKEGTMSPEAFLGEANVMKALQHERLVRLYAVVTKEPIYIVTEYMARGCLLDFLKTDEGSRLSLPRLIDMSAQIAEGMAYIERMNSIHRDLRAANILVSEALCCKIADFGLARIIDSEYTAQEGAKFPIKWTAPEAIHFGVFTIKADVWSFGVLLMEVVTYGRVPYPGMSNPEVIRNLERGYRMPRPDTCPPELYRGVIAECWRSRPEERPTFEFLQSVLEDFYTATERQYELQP

[8] = target: Ribosomal protein S6 kinase beta-1 (Homo sapiens, UniProt P23443); experiment: Inhibition of p70S6K
Sequence of Ribosomal protein S6 kinase beta-1 (P23443 whole entry): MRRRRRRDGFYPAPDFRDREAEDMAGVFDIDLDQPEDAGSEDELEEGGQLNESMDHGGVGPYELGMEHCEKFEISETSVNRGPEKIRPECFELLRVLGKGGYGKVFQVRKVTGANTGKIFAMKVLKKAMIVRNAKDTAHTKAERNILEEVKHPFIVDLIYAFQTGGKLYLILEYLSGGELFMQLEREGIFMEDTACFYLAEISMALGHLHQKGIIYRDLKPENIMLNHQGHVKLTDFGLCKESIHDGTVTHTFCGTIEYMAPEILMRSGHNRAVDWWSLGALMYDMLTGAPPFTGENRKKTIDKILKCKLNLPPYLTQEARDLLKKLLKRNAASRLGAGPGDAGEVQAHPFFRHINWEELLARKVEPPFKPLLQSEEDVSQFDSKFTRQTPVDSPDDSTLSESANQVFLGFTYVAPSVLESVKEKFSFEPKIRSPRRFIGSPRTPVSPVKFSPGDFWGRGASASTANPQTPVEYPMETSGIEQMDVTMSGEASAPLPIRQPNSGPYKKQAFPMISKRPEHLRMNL

[9] = target: Tyrosine-protein kinase CSK (Homo sapiens, UniProt P41240); experiment: Inhibition of CSK
[10] = target: Tyrosine-protein kinase Lyn (Homo sapiens, UniProt P07948); experiment: Inhibition of Lyn
Sequence of Tyrosine-protein kinase Lyn (P07948 whole entry): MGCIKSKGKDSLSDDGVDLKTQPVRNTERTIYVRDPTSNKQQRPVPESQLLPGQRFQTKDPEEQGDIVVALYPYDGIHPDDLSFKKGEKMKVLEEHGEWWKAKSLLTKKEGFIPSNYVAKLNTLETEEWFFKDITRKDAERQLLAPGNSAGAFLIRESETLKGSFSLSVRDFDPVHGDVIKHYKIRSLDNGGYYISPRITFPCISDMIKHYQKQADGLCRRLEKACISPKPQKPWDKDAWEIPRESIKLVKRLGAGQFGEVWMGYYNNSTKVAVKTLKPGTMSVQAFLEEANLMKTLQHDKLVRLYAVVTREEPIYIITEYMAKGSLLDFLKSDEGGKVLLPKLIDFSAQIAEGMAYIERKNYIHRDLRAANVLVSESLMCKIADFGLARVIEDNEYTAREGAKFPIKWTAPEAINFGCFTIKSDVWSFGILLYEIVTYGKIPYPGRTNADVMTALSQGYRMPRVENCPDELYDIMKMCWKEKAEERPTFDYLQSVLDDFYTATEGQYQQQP

[11] = target: Tyrosine-protein kinase ABL1 (Homo sapiens, UniProt P00519, T315I); experiment: Inhibition of Abl T315I mutant
[12] = target: Vascular endothelial growth factor receptor 2 (Homo sapiens, UniProt P35968); experiment: Inhibition of VEGFR2
Sequence of Vascular endothelial growth factor receptor 2 (P35968 whole entry): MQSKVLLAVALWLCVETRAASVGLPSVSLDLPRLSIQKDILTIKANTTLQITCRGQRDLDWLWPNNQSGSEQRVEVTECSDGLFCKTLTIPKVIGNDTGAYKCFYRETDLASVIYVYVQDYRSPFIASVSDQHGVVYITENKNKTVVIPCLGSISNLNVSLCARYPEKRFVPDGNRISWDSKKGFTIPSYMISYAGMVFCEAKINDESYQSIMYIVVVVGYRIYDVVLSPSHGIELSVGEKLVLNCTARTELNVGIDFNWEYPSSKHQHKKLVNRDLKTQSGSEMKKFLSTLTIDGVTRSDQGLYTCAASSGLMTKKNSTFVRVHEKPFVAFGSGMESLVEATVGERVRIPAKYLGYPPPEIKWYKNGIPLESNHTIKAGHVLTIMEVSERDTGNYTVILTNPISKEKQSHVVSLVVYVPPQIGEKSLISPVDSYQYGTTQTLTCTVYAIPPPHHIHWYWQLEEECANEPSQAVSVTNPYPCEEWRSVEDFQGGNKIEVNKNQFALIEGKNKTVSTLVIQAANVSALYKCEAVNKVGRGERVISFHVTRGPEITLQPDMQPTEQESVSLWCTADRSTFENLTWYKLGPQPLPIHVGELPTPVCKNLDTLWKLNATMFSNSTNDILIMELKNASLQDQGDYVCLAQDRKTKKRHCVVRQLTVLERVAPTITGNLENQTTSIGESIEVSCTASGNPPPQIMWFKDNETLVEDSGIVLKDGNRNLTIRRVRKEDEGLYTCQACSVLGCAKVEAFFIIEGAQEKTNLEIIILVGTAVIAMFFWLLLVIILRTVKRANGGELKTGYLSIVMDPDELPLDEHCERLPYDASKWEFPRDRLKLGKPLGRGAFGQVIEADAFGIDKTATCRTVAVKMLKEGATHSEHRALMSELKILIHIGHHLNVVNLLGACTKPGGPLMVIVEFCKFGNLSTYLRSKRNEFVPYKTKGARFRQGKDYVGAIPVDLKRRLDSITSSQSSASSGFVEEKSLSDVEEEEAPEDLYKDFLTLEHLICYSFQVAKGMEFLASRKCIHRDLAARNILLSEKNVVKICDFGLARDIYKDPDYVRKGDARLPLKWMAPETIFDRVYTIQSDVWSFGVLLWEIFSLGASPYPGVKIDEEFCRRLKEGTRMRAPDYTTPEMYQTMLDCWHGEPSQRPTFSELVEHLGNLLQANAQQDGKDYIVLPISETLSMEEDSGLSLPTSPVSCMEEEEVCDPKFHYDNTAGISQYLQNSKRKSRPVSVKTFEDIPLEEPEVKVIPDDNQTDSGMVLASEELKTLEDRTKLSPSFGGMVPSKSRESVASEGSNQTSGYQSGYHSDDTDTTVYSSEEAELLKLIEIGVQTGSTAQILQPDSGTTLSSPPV

Sequence of Proto-oncogene tyrosine-protein kinase Src (P12931 2-536 limits assumed): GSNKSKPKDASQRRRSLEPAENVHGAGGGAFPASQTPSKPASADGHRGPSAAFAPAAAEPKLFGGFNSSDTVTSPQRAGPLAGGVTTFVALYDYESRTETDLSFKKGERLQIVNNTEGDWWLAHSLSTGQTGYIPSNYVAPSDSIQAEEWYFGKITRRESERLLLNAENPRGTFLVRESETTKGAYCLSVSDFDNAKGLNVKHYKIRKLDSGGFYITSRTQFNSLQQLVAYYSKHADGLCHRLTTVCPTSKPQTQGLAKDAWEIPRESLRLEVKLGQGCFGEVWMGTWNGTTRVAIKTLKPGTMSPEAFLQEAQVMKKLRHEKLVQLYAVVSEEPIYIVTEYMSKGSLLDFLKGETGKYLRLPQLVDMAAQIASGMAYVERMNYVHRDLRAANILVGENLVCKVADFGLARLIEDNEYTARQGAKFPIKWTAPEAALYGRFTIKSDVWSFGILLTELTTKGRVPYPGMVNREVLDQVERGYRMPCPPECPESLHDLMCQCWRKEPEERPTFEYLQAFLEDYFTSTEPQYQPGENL

| SMILES | IC50 [1] [nM] | further results |
| --- | --- | --- |
| Cc1cc(-c2c(Cl)cccc2Cl)cc2nnc(N)nc12 | 3600 | – |
| Cc1cc(C)c(-c2cc(C)c3nc(Nc4ccccc4)nnc3c2)c(C)c1 | > 50000 | – |
| Cc1cccc(C)c1-c1cc(C)c2nc(Nc3cccc4cccnc34)nnc2c1 | > 50000 | – |
| Cc1cccc(C)c1-c1cc(C)c2nc(N)nnc2c1 | 7400 | – |
| CCOC1CN(C)CCN1c1cccc(Nc2nnc3cc(-c4c(C)cccc4C)cc(C)c3n2)c1 (stereo not given) | 41 | – |
| Cc1cccc(Nc2nnc3cc(-c4c(C)cccc4C)cc(C)c3n2)c1C | > 50000 | – |
| CCN(CC)CCOc1ccc(Nc2nnc3cc(-c4c(C)cccc4C)cc(C)c3n2)cc1 | 10 | – |
| Cc1cccc(C)c1-c1cc(C)c2nc(Nc3ccncc3)nnc2c1 | 40 | – |
| CC(=O)Nc1nnc2cc(-c3c(C)cccc3C)cc(C)c2n1 | > 50000 | – |
| CCCOC1CN(C)CCN1c1cccc(Nc2nnc3cc(-c4c(C)cccc4C)cc(C)c3n2)c1 (stereo not given) | 40 | – |
| COc1ccccc1Nc1nnc2cc(-c3c(C)cccc3C)cc(C)c2n1 | > 50000 | – |
| Nc1nnc2cc(-c3ccc4c(c3)OCO4)ccc2n1 | 12000 | – |
| CCOC1CN(c2ccc(Nc3nnc4cc(-c5c(C)cccc5C)cc(C)c4n3)cc2)CCO1 (stereo not given) | 32 | – |
| Cc1cccc(C)c1-c1cc(C)c2nc(Nc3ccc(OCCN4CCCC4)cc3)nnc2c1 | – | IC50 [2]: 20 nM; IC50 [3]: 68 nM; IC50 [4]: 23 nM; IC50 [5]: 678 nM; IC50 [6]: 69 nM; IC50 [7]: 1320 nM; IC50 [8]: 2710 nM; IC50 [9]: 659 nM; IC50 [10]: 21 nM; IC50 [11]: 5990 nM; IC50 [12]: 555 nM |
| Cc1ccc(Nc2nnc3cc(-c4c(C)cccc4C)cc(C)c3n2)c(C)c1 | > 50000 | – |

Second part, led by results:

| IC50 [1] [nM] | SMILES | further results |
| --- | --- | --- |
| 480 | Cc1cccc(C)c1-c1cc(C)c2nc(Nc3cccc(S(=O)(=O)N4CCNCC4)c3)nnc2c1 | – |
| 1500 | Cc1cc(-c2cc(O)ccc2Cl)cc2nnc(N)nc12 | – |
| > 50000 | Nc1nnc2cc(-c3ccccc3)ccc2n1 | – |
| > 50000 | Cc1cccc(C)c1-c1cc(C)c2nc(Nc3ccccn3)nnc2c1 | – |
| > 50000 | CCCCc1ccc(Nc2nnc3cc(-c4c(C)cccc4C)cc(C)c3n2)cc1 | – |
| 2200 | Cc1cccc(C)c1-c1ccc2nc(N)nnc2c1 | – |
| 410 | Cc1cccc(C)c1-c1cc(C)c2nc(Nc3ccccc3)nnc2c1 | – |
| > 50000 | Cc1ccc(C)c(Nc2nnc3cc(-c4c(C)cccc4C)cc(C)c3n2)c1 | – |
| > 50000 | Cc1cc(-c2ccccc2Cl)cc2nnc(N)nc12 | – |
| 5200 | Nc1nnc2cc(-c3ccc4ccccc4c3)ccc2n1 | – |
